In the CheMixHub viscosity set:

Experiment: xn = mol fraction of the nth substance listed

CC(=O)CC(C)C + CCCC(C)O
viscosity [mPa·s], 101.3 kPa
Conditions | x1 = 0.1036 | x1 = 0.2131 | x1 = 0.3003 | x1 = 0.3959 | x1 = 0.5098 | x1 = 0.5963 | x1 = 0.6924 | x1 = 0.7942 | x1 = 0.9001
298.15 K | 2.26 | 1.61 | 1.32 | 1.12 | 0.924 | 0.821 | 0.712 | 0.646 | 0.589
303.15 K | 1.93 | 1.41 | 1.16 | 1.01 | 0.848 | 0.76 | 0.664 | 0.607 | 0.557
308.15 K | 1.65 | 1.25 | 1.05 | 0.91 | 0.78 | 0.705 | 0.62 | 0.571 | 0.527
313.15 K | 1.41 | 1.1 | 0.965 | 0.837 | 0.718 | 0.658 | 0.601 | 0.553 | 0.502

C=C(C)[C@@H]1CC=C(C)CC1 + CCCCCC
298.15 K, 101.33 kPa
Conditions | viscosity [mPa·s]
x2 = 0.0279 | 0.825
x2 = 0.0568 | 0.806
x2 = 0.113 | 0.759
x2 = 0.2079 | 0.686
x2 = 0.2991 | 0.622
x2 = 0.4219 | 0.549
x2 = 0.5543 | 0.477
x2 = 0.6701 | 0.421
x2 = 0.7542 | 0.386
x2 = 0.8966 | 0.334
x2 = 0.9273 | 0.326
x2 = 0.972 | 0.305

CC(C)CC(C)(C)C + CCCCCC
298.15 K, 101 kPa
Conditions | viscosity [mPa·s]
x1 = 0.05688 | 0.3093
x1 = 0.1612 | 0.3278
x1 = 0.2742 | 0.3441
x1 = 0.3413 | 0.3538
x1 = 0.4585 | 0.373
x1 = 0.5556 | 0.3897
x1 = 0.6116 | 0.3995
x1 = 0.7348 | 0.4226
x1 = 0.7874 | 0.4329
x1 = 0.852 | 0.4445
x1 = 0.9128 | 0.4582
x1 = 0.9559 | 0.4674
x2 = 0.03385 | 0.484

O=C1CCCCC1 + CCCCCC
viscosity [mPa·s]
Conditions | 298.15 K | 303.15 K | 308.15 K
101 kPa, x1 = 0.0863 | 0.364 | – | –
101 kPa, x1 = 0.2109 | 0.421 | – | –
101 kPa, x1 = 0.3038 | 0.474 | – | –
101 kPa, x1 = 0.4007 | 0.542 | – | –
101 kPa, x1 = 0.463 | 0.598 | – | –
101 kPa, x1 = 0.6023 | 0.773 | – | –
101 kPa, x1 = 0.6701 | 0.833 | – | –
101 kPa, x1 = 0.7991 | 1.185 | – | –
101 kPa, x1 = 0.872 | 1.398 | – | –
101.33 kPa, x1 = 0.1011 | 0.335 | 0.318 | 0.305
101.33 kPa, x1 = 0.2012 | 0.381 | 0.361 | 0.343
101.33 kPa, x1 = 0.3052 | 0.445 | 0.418 | 0.396
101.33 kPa, x1 = 0.4029 | 0.514 | 0.483 | 0.458
101.33 kPa, x1 = 0.5011 | 0.607 | 0.57 | 0.537
101.33 kPa, x1 = 0.6043 | 0.732 | 0.684 | 0.641
101.33 kPa, x1 = 0.7032 | 0.898 | 0.834 | 0.779
101.33 kPa, x1 = 0.8003 | 1.131 | 1.033 | 0.961
101.33 kPa, x1 = 0.8989 | 1.441 | 1.322 | 1.22

CC(=O)CC(C)C + CCCCCCC
298.15 K, 101 kPa
Conditions | viscosity [mPa·s]
x1 = 0.1142 | 0.39
x1 = 0.2052 | 0.397
x1 = 0.3088 | 0.407
x1 = 0.4417 | 0.424
x1 = 0.5341 | 0.438
x1 = 0.6443 | 0.458
x1 = 0.7444 | 0.478
x1 = 0.8854 | 0.511

CC(C)CC(C)(C)C + CCCCCCC
101 kPa
Conditions | viscosity [mPa·s]
293.15 K, x1 = 0.6 | 0.454
293.15 K, x1 = 0.8 | 0.473
298.15 K, x1 = 0.1802 | 0.4055
298.15 K, x1 = 0.2943 | 0.4133
298.15 K, x1 = 0.3739 | 0.4193
298.15 K, x1 = 0.4883 | 0.4269
298.15 K, x1 = 0.5806 | 0.4357
298.15 K, x1 = 0.6254 | 0.4399
298.15 K, x1 = 0.7244 | 0.4491
298.15 K, x1 = 0.799 | 0.4562
298.15 K, x1 = 0.8649 | 0.461
298.15 K, x1 = 0.9217 | 0.4665
298.15 K, x1 = 0.9641 | 0.4743
313.15 K, x1 = 0.2 | 0.343
313.15 K, x1 = 0.4 | 0.354
313.15 K, x1 = 0.6 | 0.366
313.15 K, x1 = 0.8 | 0.38

CCCCCCO + CCCCCCC
viscosity [mPa·s], 101.33 kPa
Conditions | x1 = 0.0567 | x1 = 0.1134 | x1 = 0.2217 | x1 = 0.3279 | x1 = 0.4307 | x1 = 0.5294 | x1 = 0.6292 | x1 = 0.7248 | x1 = 0.8643 | x1 = 0.9526
298.15 K | 0.4405 | 0.4541 | 0.5473 | 0.6831 | 0.8745 | 1.142 | 1.523 | 2.047 | 2.93 | 3.788
308.15 K | 0.396 | 0.4021 | 0.4788 | 0.5863 | 0.7378 | 0.9541 | 1.201 | 1.574 | 2.299 | 2.921

O=C1CCCCC1 + CCCCCCC
viscosity [mPa·s]
Conditions | 298.15 K | 303.15 K | 308.15 K
101 kPa, x1 = 0.1125 | 0.437 | – | –
101 kPa, x1 = 0.2097 | 0.484 | – | –
101 kPa, x1 = 0.3055 | 0.539 | – | –
101 kPa, x1 = 0.4144 | 0.616 | – | –
101 kPa, x1 = 0.5033 | 0.702 | – | –
101 kPa, x1 = 0.5928 | 0.803 | – | –
101 kPa, x1 = 0.7027 | 0.97 | – | –
101 kPa, x1 = 0.8091 | 1.184 | – | –
101 kPa, x1 = 0.8686 | 1.34 | – | –
101.33 kPa, x1 = 0.1046 | 0.427 | 0.403 | 0.384
101.33 kPa, x1 = 0.2024 | 0.472 | 0.445 | 0.421
101.33 kPa, x1 = 0.3035 | 0.529 | 0.497 | 0.47
101.33 kPa, x1 = 0.4016 | 0.606 | 0.564 | 0.53
101.33 kPa, x1 = 0.5025 | 0.69 | 0.644 | 0.605
101.33 kPa, x1 = 0.5993 | 0.805 | 0.75 | 0.701
101.33 kPa, x1 = 0.7026 | 0.96 | 0.893 | 0.828
101.33 kPa, x1 = 0.8009 | 1.178 | 1.085 | 1.004
101.33 kPa, x1 = 0.9009 | 1.474 | 1.349 | 1.235

CC(C)CC(C)(C)C + CCCCCCCC
viscosity [mPa·s]
Conditions | x1 = 0.2 | x1 = 0.4 | x1 = 0.5 | x1 = 0.6 | x1 = 0.8
293.15 K, 101 kPa | 0.528 | 0.519 | – | 0.51 | 0.503
298.2 K, 100 kPa | – | – | 0.4882 | – | –
313.15 K, 101 kPa | 0.421 | 0.415 | – | 0.408 | 0.403
